Results: patent publication US20060177553A1, “Method of powdering nonsugar component and powdering base” (priority 2003, published 2006)

Columns and labels:
Assay type in all cases: physicochemical
[1] = Solubility in water of the product
[2] = Reducing power (DE, Somogyi-Nelson method)
Method: A reagent grade maltotetraose (purity 97.0% or higher), commercialized by Hayashibara Biochemical Laboratories Inc., Okayama, Japan, was prepared into 20% solution and admixed with two units/g-saccharide of non-reducing saccharide-forming enzyme, disclosed in Japanese Patent No. 44695/81, and followed enzymatic reaction at 46° C. for 48 hours, and the saccharide solution containing 79.8% of α-maltosyl α,α-trehalose, d.s.b., was obtained. After adjusting the pH to 6.0, the saccharide solution was admixed with 10 units/g-saccharide of β-amylase, commercialized by Nagase & Co., Ltd., Osaka, Japan, and followed enzymatic reaction at 50° C. for 48 hours to hydrolyze maltotetraose. After autoclaving at 120° C. for 10 minutes, the reaction mixture was cooled and filtrated. The resulting filtrate was subjected to a column chromatography using “XT-1016 (Na^+-form, degree of crosslinking 4%)”, a strong acid cation-exchanger resin commercialized by Rohm and Hass Japan K.K., Fukushima, Japan, and collected α-maltosyl α,α-trehalose high content fractions. The saccharide solution was purified, concentrated, and spray-dried to prepare an amorphous powdery α-maltosyl α,α-trehalose high content base for the powderization.

[3] = Hygroscopicity of the product

In the case of `OC[C@H]1O[C@H](O[C@H]2O[C@H](CO)[C@@H](O[C@H]3O[C@H](CO)[C@@H](O[C@H]4O[C@H](CO)[C@@H](O)[C@H](O)[C@H]4O)[C@H](O)[C@H]3O)[C@H](O)[C@H]2O)[C@H](O)[C@@H](O)[C@@H]1O` [Example A-5, α-maltosyl α,α-trehalose], the solubility in water [1] is reported as “satisfactory”, the reducibility [2] is reported as “no reducibility” and the reducing power ([2]; Somogyi-Nelson method) is reported as “less than the detection limit”. The hygroscopicity [3] was “low”.
